This data set relates to CCRIS mutagenicity, Ames/micronucleus/aberration tests. Nature of the data set: CCRIS mutagenicity studies. The settings on record: Test System: AMES SALMONELLA TYPHIMURIUM
Setting [1] is: Strain/Indicator: TA98, Metabolic Activation: NONE, Method: STANDARD PLATE.
[2] abbreviates: Strain/Indicator: TA98, Metabolic Activation: RAT, LIVER, S-9, AROCLOR 1254, Method: STANDARD PLATE.
The mark [3] stands for this setting: Strain/Indicator: TA100, Metabolic Activation: RAT, LIVER, S-9, AROCLOR 1254, Method: STANDARD PLATE.
Where [4] appears, read: Strain/Indicator: TA98, Metabolic Activation: NONE, Method: PREINCUBATION
The mark [5] stands for this setting: Strain/Indicator: TA100, Metabolic Activation: NONE, Method: STANDARD PLATE.

Active and inactive are the calls of the source. No rule for the calls is given here.

Data on ten compounds can be found in PubChem BioAssay AID1259407 (Chemical Carcinogenesis Research Information System (CCRIS), 2018).

For `Oc1ccc(O)c2ccccc12`, the mutagenic call is “active; positive” (Strain/Indicator: TA104, Metabolic Activation: NONE, Method: PREINCUBATION) and “active; positive” (Strain/Indicator: TA2637, Metabolic Activation: RAT, LIVER, S-9, PHENOBARBITAL AND 5,6-BENZOFLAVONE, Method: PREINCUBATION).
Take `Cc1c(N)nc([C@H](CC(N)=O)NC[C@H](N)C(N)=O)nc1C(=O)N[C@H](C(=O)N[C@H](C)[C@@H](O)[C@H](C)C(=O)N[C@H](C(=O)NCCc1nc(-c2nc(C(=O)NCCCNCCCN=C(N)CC3CCC(Cl)CC3)cs2)cs1)[C@@H](C)O)[C@@H](O[C@@H]1O[C@@H](CO)[C@@H](O)[C@H](O)[C@@H]1O[C@H]1O[C@H](CO)[C@@H](O)[C@H](OC(N)=O)[C@@H]1O)c1cnc[nH]1` (stereo not given in full): the mutagenic call was “active; positive” (Strain/Indicator: TA94, Metabolic Activation: NONE, Method: PREINCUBATION) and “active; positive” (Strain/Indicator: TA102, Metabolic Activation: NONE, Method: PREINCUBATION).
Consider `c1ccc2cc3c(ccc4ccncc43)cc2c1`, for which the mutagenic call under setting [1] is “inactive; negative”, the mutagenic call under setting [2] was “active; positive” and the mutagenic call under setting [3] was “active; positive”.
With `Nc1ccc(F)cc1F`, the mutagenic call is, setting by setting: (Strain/Indicator: TA97, Metabolic Activation: HAMSTER, LIVER, S-9, AROCLOR 1254 (10%), Method: PREINCUBATION) “inactive; negative”; (Strain/Indicator: TA97, Metabolic Activation: HAMSTER, LIVER, S-9, AROCLOR 1254 (30%), Method: PREINCUBATION) “inactive; negative”; (Strain/Indicator: TA97, Metabolic Activation: NONE, Method: PREINCUBATION) “inactive; negative”; (Strain/Indicator: TA97, Metabolic Activation: RAT, LIVER, S-9, AROCLOR 1254 (10%), Method: PREINCUBATION) “inactive; negative”; (Strain/Indicator: TA97, Metabolic Activation: RAT, LIVER, S-9, AROCLOR 1254 (30%), Method: PREINCUBATION) “inactive; negative”; (Strain/Indicator: TA98, Metabolic Activation: HAMSTER, LIVER, S-9, AROCLOR 1254 (10%), Method: PREINCUBATION) “inactive; negative”. Besides, the mutagenic call was “active; positive” (Strain/Indicator: TA98, Metabolic Activation: HAMSTER, LIVER, S-9, AROCLOR 1254 (30%), Method: PREINCUBATION); “inactive; negative” under setting [4]; “inactive; negative” (Strain/Indicator: TA98, Metabolic Activation: RAT, LIVER, S-9, AROCLOR 1254 (10%), Method: PREINCUBATION); “inactive; negative” (Strain/Indicator: TA98, Metabolic Activation: RAT, LIVER, S-9, AROCLOR 1254 (30%), Method: PREINCUBATION); “inactive; negative” (Strain/Indicator: TA100, Metabolic Activation: HAMSTER, LIVER, S-9, AROCLOR 1254 (5 OR 10%), Method: PREINCUBATION); “active; positive” (Strain/Indicator: TA100, Metabolic Activation: HAMSTER, LIVER, S-9, AROCLOR 1254 (30%), Method: PREINCUBATION). Besides, the mutagenic call (Strain/Indicator: TA100, Metabolic Activation: NONE, Method: PREINCUBATION) was “inactive; negative”; the mutagenic call (Strain/Indicator: TA100, Metabolic Activation: RAT, LIVER, S-9, AROCLOR 1254 (5, 10 OR 30%), Method: PREINCUBATION) was “inactive; negative”; the mutagenic call (Strain/Indicator: TA1535, Metabolic Activation: HAMSTER, LIVER, S-9, AROCLOR 1254 (10%), Method: PREINCUBATION) is “inactive; negative”; the mutagenic call (Strain/Indicator: TA1535, Metabolic Activation: HAMSTER, LIVER, S-9, AROCLOR 1254 (30%), Method: PREINCUBATION) is “inactive; negative”; the mutagenic call (Strain/Indicator: TA1535, Metabolic Activation: NONE, Method: PREINCUBATION) was “inactive; negative”; the mutagenic call (Strain/Indicator: TA1535, Metabolic Activation: RAT, LIVER, S-9, AROCLOR 1254 (10%), Method: PREINCUBATION) was “inactive; negative”. In addition, under “Strain/Indicator: TA1535, Metabolic Activation: RAT, LIVER, S-9, AROCLOR 1254 (30%), Method: PREINCUBATION”, the mutagenic call was “inactive; negative”.
With `C=CCc1ccc(O)c(O)c1`, the mutagenic call is “inactive; negative” (Strain/Indicator: TA97, Metabolic Activation: NONE, Method: STANDARD PLATE); “inactive; negative” (Strain/Indicator: TA97, Metabolic Activation: RAT, LIVER, S-9, AROCLOR 1254, Method: STANDARD PLATE); “inactive; negative” under setting [1]; “inactive; negative” under setting [2]; “inactive; negative” under setting [5]; “inactive; negative” under setting [3]. Moreover, the mutagenic call (Strain/Indicator: TA102, Metabolic Activation: NONE, Method: STANDARD PLATE) was “active; positive”; the mutagenic call (Strain/Indicator: TA102, Metabolic Activation: RAT, LIVER, S-9, AROCLOR 1254, Method: STANDARD PLATE) is “inactive; negative”; the mutagenic call (Strain/Indicator: TA1535, Metabolic Activation: NONE, Method: STANDARD PLATE) was “inactive; negative”; the mutagenic call (Strain/Indicator: TA1535, Metabolic Activation: RAT, LIVER, S-9, AROCLOR 1254, Method: STANDARD PLATE) was “inactive; negative”; the mutagenic call (Strain/Indicator: TA1538, Metabolic Activation: NONE, Method: STANDARD PLATE) is “inactive; negative”; the mutagenic call (Strain/Indicator: TA1538, Metabolic Activation: RAT, LIVER, S-9, AROCLOR 1254, Method: STANDARD PLATE) is “inactive; negative”.
On to `Cc1cc2c3ccccc3cc3ccc4cccc1c4c32`, for which the mutagenic call is, setting by setting: (Strain/Indicator: TA100, Metabolic Activation: RAT, INTACT HEPATOCYTES, AROCLOR 1254, Method: PREINCUBATION) “active; positive”; (Strain/Indicator: TA100, Metabolic Activation: RAT, NADPH-FORTIFIED HOMOGENIZED HEPATOCYTES, AROCLOR 1254, Method: PREINCUBATION) “active; positive”.
Regarding `CC(=O)O[C@H]1[C@@]2(O)CC(C)(C)CC2=C(C=O)[C@@]2(C=O)C[C@@]12C`, the mutagenic call is, setting by setting: under setting [1], “inactive; negative”; under setting [5], “active; positive”; (Strain/Indicator: TA2637, Metabolic Activation: NONE, Method: STANDARD PLATE) “inactive; negative”.
On to `O=C1CCCc2c1ccc1c([N+](=O)[O-])c3ccccc3cc21`, for which the mutagenic call runs as follows: (Strain/Indicator: TA98, Metabolic Activation: NONE) “inactive; negative”; (Strain/Indicator: TA98, Metabolic Activation: S-9) “inactive; negative”; (Strain/Indicator: TA100, Metabolic Activation: NONE) “inactive; negative”; (Strain/Indicator: TA100, Metabolic Activation: S-9) “inactive; negative”.
As to `O=C1C=Cc2ccc3c(ccc4ccccc43)c2C1=O`, the mutagenic call runs as follows: under setting [1], “inactive; negative”; under setting [3], “active; positive”.
As for `Cc1cccc2c3c(c4cc5ccccc5cc4c12)N3`, the mutagenic call under setting [4] was “active; positive”.
